From patent EP0013144A1, “Substituted diphenylamine derivatives, compositions and herbicidal uses thereof, and processes for their preparation” (ICI AUSTRALIA LIMITED, priority 1978, dated 1980)

Tests used:
Type in all cases: in vivo
Maize [1] = experiment: Pre-emergence herbicidal test, fibre trays (Example 33); design: key: 0 = 0-20% damage, 5 = complete kill, vs untreated control; conditions: 2.0 kg/ha, after 21 days
Description: (§1) The compounds were formulated for test by mixing an appropriate amount with 5 ml of an emulsion prepared by diluting 160 ml of a solution containing 21.S g per litre of "Span" 80 and 78.2 g per litre of "Tween" 20 in methylcyclohexanone to 500 ml with water. "Span" 80 is a Trade Mark for a surface-active agent comprising sorbitan monolaurate. "Tween" 20 is a Trade Mark for a surface-active agent comprising a condensate of sorbitan monolaurate with 20 molar proportions of ethylene oxide. Each 5 ml emulsion containing a test compound was'then diluted to 40 ml with water and sprayed on to young pot plants (post-emergence test) of the species named in Table 5 below. Damage to test plants was assessed after 14 days on a scale of 0 to 5 where 0 is 0 to 20% damage and 5 is complete kill. In a test for pre-emergence herbicidal activity, seeds of the test plants were sown in a shallow slit formed in the surface of soil in fibre trays. The surface was then levelled and sprayed, and fresh soil then spread thinly over the sprayed surface. Assessment of herbicidal damage was carried out after 21 days using the same scale of 0 to 5 as the post-emergence test. In both cases the degree of herbicidal damage was assessed by comparison with untreated control plants. A dash (-) means that no experiment was carried out.

Rice [2] = experiment: as above; conditions: 2.0 kg/ha, after 21 days
Description: as §1

Amaranthus retroflexus [3] = experiment: as above; conditions: 2.0 kg/ha, after 21 days
Description: as §1

Chenopodium album [4] = experiment: as above; conditions: 2.0 kg/ha, after 21 days
Description: as §1

Cotton [5] = experiment: as above; conditions: 2.0 kg/ha, after 21 days
Description: as §1

Ipomea purpurea [6] = experiment: as above; conditions: 2.0 kg/ha, after 21 days
Description: as §1

Polygonum aviculare [7] = experiment: as above; conditions: 2.0 kg/ha, after 21 days
Description: as §1

Rape [8] = experiment: as above; conditions: 2.0 kg/ha, after 21 days
Description: as §1

Senecio vulgaris = experiment: as above; conditions: 2.0 kg/ha, after 21 days
Description: as §1

Soy bean [9] = experiment: as above; conditions: 2.0 kg/ha, after 21 days
Description: as §1

Sugar beet [10] = experiment: as above; conditions: 2.0 kg/ha, after 21 days
Description: as §1

Winter wheat [11] = experiment: as above; conditions: 2.0 kg/ha, after 21 days
Description: as §1

Maize [12] = experiment: Post-emergence herbicidal test, young pot plants (Example 33); conditions: 2.0 kg/ha, after 14 days
Description: as §1

Rice [13] = experiment: as above; conditions: 2.0 kg/ha, after 14 days
Description: as §1

Winter wheat [14] = experiment: as above; design: key: 0 = 0-20% damage, 5 = complete kill, vs untreated control; conditions: 2.0 kg/ha, after 14 days
Description: as §1

Amaranthus retroflexus [15] = experiment: as above; conditions: 2.0 kg/ha, after 14 days
Description: as §1

Chenopodium album [16] = experiment: as above; conditions: 2.0 kg/ha, after 14 days
Description: as §1

Cotton [17] = experiment: as above; conditions: 2.0 kg/ha, after 14 days
Description: as §1

Ipomea purpurea [18] = experiment: as above; conditions: 2.0 kg/ha, after 14 days
Description: as §1

Polygonum aviculare [19] = experiment: as above; conditions: 2.0 kg/ha, after 14 days
Description: as §1

Rape [20] = experiment: as above; conditions: 2.0 kg/ha, after 14 days
Description: as §1

Soy bean [21] = experiment: as above; conditions: 2.0 kg/ha, after 14 days
Description: as §1

Sugar beet [22] = experiment: as above; conditions: 2.0 kg/ha, after 14 days
Description: as §1

Ryegrass [23] = experiment: Pre-emergence herbicidal activity (Example 31); design: key: 0-3 scale: 0 = 0-25% damage, 3 = 75-99% kill, 3+ = 100% kill; conditions: after three weeks
Method in brief: (§2)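 Glasshouse test: sown seed boxes sprayed pre-emergence with diluted formulation, unsprayed boxes as reference. Visual damage scored 0–3+ after 3 weeks.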

Wheat [24] = experiment: Pre-emergence herbicidal activity (Example 31); design: key: 0-3 scale: 0 = 0-25% damage, 3 = 75-99% kill, 3+ = 100% kill; conditions: after three weeks
Method in brief: as §2

Ipomea [25] = experiment: Pre-emergence herbicidal activity (Example 31); conditions: after three weeks
Method in brief: as §2

Japanese millet [26] = experiment: Pre-emergence herbicidal activity (Example 31); conditions: after three weeks
Method in brief: as §2

Mustard = experiment: Pre-emergence herbicidal activity (Example 31); conditions: after three weeks
Method in brief: as §2

Sunflower [27] = experiment: Pre-emergence herbicidal activity (Example 31); conditions: after three weeks
Method in brief: as §2

Wheat [28] = experiment: Post-emergence herbicidal activity (Example 32); design: key: 0-3 scale: 0 = 0-25% damage, 3 = 75-99% kill, 3+ = 100% kill; conditions: 3 weeks after spraying
Method in brief: (§3)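 Herbicidal effect is expressed as a visual 0–3 injury score relative to untreated controls, read 3 weeks after foliar application to glasshouse seedlings about 10 to 12.5 cm tall. Test compositions are water-diluted surfactant-based concentrates or suspensions.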

Ipomea [29] = experiment: Post-emergence herbicidal activity (Example 32); conditions: 3 weeks after spraying
Method in brief: as §3

Japanese millet [30] = experiment: Post-emergence herbicidal activity (Example 32); conditions: 3 weeks after spraying
Method in brief: as §3

Ryegrass [31] = experiment: Post-emergence herbicidal activity (Example 32); conditions: 3 weeks after spraying
Method in brief: as §3

Sunflower [32] = experiment: Post-emergence herbicidal activity (Example 32); conditions: 3 weeks after spraying
Method in brief: as §3

Annual Rye Grass = experiment: Selective herbicidal activity, seed boxes (Example 34); conditions: weed; 0.15 kg/ha; sprayed on one week old seedlings; 29 days after spraying; triplicate
Excerpt: (§4) The seeds of the test species were sprinkled onto . the surface of soil in seed boxes and covered with a thin layer of sand. The boxes were lightly watered with an overhead spray and placed in a glasshouse for one week to permit germination of the seeds and plant growth to a height of 4 to 5 inches. […] For comparison purposes at least one box containing one week old seedlings was sprayed lightly with water only. After spraying the boxes were returned to the glasshouse for a further 29 days after which the effect of the treatment was visually assessed.

Cotton [33] = experiment: as above; conditions: crop; 1.5 kg/ha; sprayed on one week old seedlings; 29 days after spraying; triplicate
Excerpt: as §4

Japanese millet [34] = experiment: as above; conditions: weed; 0.15 kg/ha; sprayed on one week old seedlings; 29 days after spraying; triplicate
Excerpt: as §4

Setaria aviceps = experiment: as above; conditions: weed; 0.15 kg/ha; sprayed on one week old seedlings; 29 days after spraying; triplicate
Excerpt: as §4

Sorghum halepense = experiment: as above; conditions: weed; 0.15 kg/ha; sprayed on one week old seedlings; 29 days after spraying; triplicate
Excerpt: as §4

Soyabean = experiment: as above; conditions: crop; 1.5 kg/ha; sprayed on one week old seedlings; 29 days after spraying; triplicate
Excerpt: as §4

Wild Oats = experiment: as above; conditions: weed; 0.15 kg/ha; sprayed on one week old seedlings; 29 days after spraying; triplicate
Excerpt: as §4

SMILES: COC(=O)C(C)Oc1ccc(Nc2ccc(C(F)(F)F)cc2[N+](=O)[O-])cc1Cl (stereo not shown) [Compound 116]
- herbicidal damage, Mz (Maize [1]): 3
- herbicidal damage, Rc (Rice [2]): 4
- herbicidal damage, Am (Amaranthus retroflexus [3]): 0 (0 is 0 to 20% damage)
- herbicidal damage, Ca (Chenopodium album [4]): 0 (0 is 0 to 20% damage)
- herbicidal damage, Ct (Cotton [5]): 0 (0 is 0 to 20% damage)
- herbicidal damage, Ip (Ipomea purpurea [6]): 0 (0 is 0 to 20% damage)
- herbicidal damage, Pi (Polygonum aviculare [7]): 0 (0 is 0 to 20% damage)
- herbicidal damage, Rp (Rape [8]): 0 (0 is 0 to 20% damage)
- herbicidal damage, Sn (Senecio vulgaris): 0 (0 is 0 to 20% damage)
- herbicidal damage, Sy (Soy bean [9]): 0 (0 is 0 to 20% damage)
- herbicidal damage, Sb (Sugar beet [10]): 0 (0 is 0 to 20% damage)
- herbicidal damage, Ww (Winter wheat [11]): 4
- damage to test plants, Mz (Maize [12]): 4
- damage to test plants, Rc (Rice [13]): 4
- damage to test plants, Ww (Winter wheat [14]): 4
- damage to test plants, Am (Amaranthus retroflexus [15]): 0 (0 is 0 to 20% damage)
- damage to test plants, Ca (Chenopodium album [16]): 0 (0 is 0 to 20% damage)
- damage to test plants, Ct (Cotton [17]): 0 (0 is 0 to 20% damage)
- damage to test plants, Ip (Ipomea purpurea [18]): 0 (0 is 0 to 20% damage)
- damage to test plants, Pi (Polygonum aviculare [19]): 0 (0 is 0 to 20% damage)
- damage to test plants, Rp (Rape [20]): 0 (0 is 0 to 20% damage)
- damage to test plants, Sy (Soy bean [21]): 0 (0 is 0 to 20% damage)
- damage to test plants, Sb (Sugar beet [22]): 3

SMILES: CC(Oc1ccc(Nc2ccc(C(F)(F)F)cc2[N+](=O)[O-])cc1)C(=O)O (stereo not shown) [Compound 46, 2[4-(2-Nitro-4-trifluoromethylanilino)phenoxy]-propionic acid]
- damage to plants, Rg (Ryegrass [23]; 1 kg/ha): 2
- damage to plants, Rg (Ryegrass [23]; 5 kg/ha): 3+ (3+ represents 100% kill)
- damage to plants, Wh (Wheat [24]; 1 kg/ha): 0 (0 represents from 0 to 25% damage)
- damage to plants, Wh (Wheat [24]; 5 kg/ha): 2
- damage to plants, Ip (Ipomea [25]; 1 kg/ha): 0 (0 represents from 0 to 25% damage)
- damage to plants, Ip (Ipomea [25]; 5 kg/ha): 0 (0 represents from 0 to 25% damage)
- damage to plants, Jm (Japanese millet [26]; 1 kg/ha): 3 (3 represents 75 to 99% kill)
- damage to plants, Jm (Japanese millet [26]; 5 kg/ha): 3+ (3+ represents 100% kill)
- damage to plants, Ms (Mustard; 1 kg/ha): 0 (0 represents from 0 to 25% damage)
- damage to plants, Ms (Mustard; 5 kg/ha): 0 (0 represents from 0 to 25% damage)
- damage to plants, Sf (Sunflower [27]; 1 kg/ha): 0 (0 represents from 0 to 25% damage)
- damage to plants, Sf (Sunflower [27]; 5 kg/ha): 0 (0 represents from 0 to 25% damage)
- damage to plants, Wh (Wheat [28]; 1 kg/ha): 2
- damage to plants, Wh (Wheat [28]; 5 kg/ha): 3+ (3+ represents 100% kill)
- damage to plants, Ip (Ipomea [29]; 1 kg/ha): 0 (0 represents 0 to 25% damage)
- damage to plants, Ip (Ipomea [29]; 5 kg/ha): 0 (0 represents 0 to 25% damage)
- damage to plants, Jm (Japanese millet [30]; 1 kg/ha): 3+ (3+ represents 100% kill)
- damage to plants, Jm (Japanese millet [30]; 5 kg/ha): 3+ (3+ represents 100% kill)
- damage to plants, Rg (Ryegrass [31]; 1 kg/ha): 3+ (3+ represents 100% kill)
- damage to plants, Rg (Ryegrass [31]; 5 kg/ha): 3+ (3+ represents 100% kill)
- damage to plants, Sf (Sunflower [32]; 1 kg/ha): 0 (0 represents 0 to 25% damage)
- damage to plants, Sf (Sunflower [32]; 5 kg/ha): 2
- percentage damage, Rg (Annual Rye Grass): 55 percentage
- percentage damage, Ct (Cotton [33]): 50 percentage
- percentage damage, Jm (Japanese millet [34]): 85 percentage
- percentage damage, St (Setaria aviceps): 55 percentage
- percentage damage, Sh (Sorghum halepense): 88 percentage
- percentage damage, Sb (Soyabean): 38 percentage
- percentage damage, Ot (Wild Oats): 50 percentage
